Source: ChEMBL document CHEMBL5360551, “Exploration of LPS2 agonist binding modes using the combination of a new hydrophobic scaffold and homology modeling” (Eur J Med Chem, 2023)
Activity calls are given as the source filed them. The calls are words filed in the database; no cut-off is given here.

Tests used:
Format in all cases: functional, cell-based
McA-RH7777 [1] = experiment: Induction of actin stress fiber formation in rat McA-RH7777 cells expressing mouse LPS2 at 0.001 to 1 uM incubated for 30 mins by Alexa594-labelled phalloidin staining based fluorescence microscopic analysis; settings: dose 0.001-1 µM
[2] = target: Putative P2Y purinoceptor 10 (Mus musculus) (UniProt Q8BFU7); experiment: Agonist activity at mouse LPS2/P2Y10 transfected in HEK293-A cells co-transfected with AP-TGFalpha assessed as AP-TGFalpha release by TGFalpha shedding assay relative to LysoPS; settings: filed as agonist
[3] = target: Putative P2Y purinoceptor 10 (Mus musculus, UniProt Q8BFU7); experiment: Agonist activity at mouse LPS2/P2Y10 transfected in HEK293-A cells co-transfected with AP-TGFalpha assessed as AP-TGFalpha release by TGFalpha shedding assay; settings: read-out: EC50
[4] = target: T1, Putative P2Y purinoceptor 10 (Homo sapiens, UniProt O00398); experiment: Agonist activity at human LPS2/P2Y10 transfected in HEK293-A cells co-transfected with AP-TGFalpha assessed as AP-TGFalpha release by TGFalpha shedding assay relative to LysopPS; settings: filed as agonist
McA-RH7777 [5] = experiment: Induction of actin stress fiber formation in rat McA-RH7777 cells expressing mouse LPS2 at 1 nM incubated for 30 mins by Alexa594-labelled phalloidin staining based fluorescence microscopic analysis
[6] = target: T1, Putative P2Y purinoceptor 10; experiment: Agonist activity at human LPS2/P2Y10 transfected in HEK293-A cells co-transfected with AP-TGFalpha assessed as AP-TGFalpha release by TGFalpha shedding assay; settings: read-out: EC50
McA-RH7777 [7] = experiment: Induction of actin stress fiber formation in rat McA-RH7777 cells expressing mouse LPS2 at 1 uM incubated for 30 mins by Alexa594-labelled phalloidin staining based fluorescence microscopic analysis

Chain of Putative P2Y purinoceptor 10 (Mus musculus, UniProt Q8BFU7) (Q8BFU7 whole entry): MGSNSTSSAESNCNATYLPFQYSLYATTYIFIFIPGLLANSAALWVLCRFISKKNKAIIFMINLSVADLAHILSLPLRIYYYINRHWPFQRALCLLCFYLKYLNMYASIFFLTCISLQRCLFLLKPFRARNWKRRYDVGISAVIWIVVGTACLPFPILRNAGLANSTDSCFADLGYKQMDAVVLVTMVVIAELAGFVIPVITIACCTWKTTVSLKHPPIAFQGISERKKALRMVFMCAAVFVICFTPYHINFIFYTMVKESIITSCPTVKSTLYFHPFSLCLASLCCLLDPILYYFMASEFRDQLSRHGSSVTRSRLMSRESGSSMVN
Chain of Putative P2Y purinoceptor 10 (Mus musculus) (Q8BFU7 whole entry): as above
T1 sequence (O00398 whole entry): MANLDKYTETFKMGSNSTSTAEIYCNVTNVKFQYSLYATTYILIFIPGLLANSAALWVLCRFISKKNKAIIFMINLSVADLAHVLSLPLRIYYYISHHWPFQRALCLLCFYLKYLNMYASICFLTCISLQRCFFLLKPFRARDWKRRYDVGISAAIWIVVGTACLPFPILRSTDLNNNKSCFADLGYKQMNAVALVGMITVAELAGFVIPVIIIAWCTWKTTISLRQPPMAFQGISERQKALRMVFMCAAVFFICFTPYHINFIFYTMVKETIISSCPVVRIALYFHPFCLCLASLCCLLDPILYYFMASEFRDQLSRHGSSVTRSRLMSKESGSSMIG

| Emax [2] [%] | EC50 [3] [µM] | Emax [4] [%] | EC50 [6] [µM] | SMILES | Activity (McA-RH7777 [1]) | Activity (McA-RH7777 [5]) | Activity (McA-RH7777 [7]) |
| --- | --- | --- | --- | --- | --- | --- | --- |
| 100 | 0.17 | – | – | N[C@@H](COP(=O)(O)OCCCOC(=O)CCc1ccccc1Oc1ccc(-c2ccc(C(=O)O)cc2)cc1)C(=O)O | inactive | – | – |
| 83 | 0.0019 | 112 | 0.0061 | N[C@@H](COP(=O)(O)OCCCOC(=O)CCc1ccccc1Oc1ccc(-c2cc(-c3ccccc3)cc(-c3ccccc3)c2)cc1)C(=O)O | – | Active | – |
| 113 | 0.001 | 125 | 0.022 | N[C@@H](COP(=O)(O)OCCCOC(=O)CCc1ccccc1Oc1ccc(-c2cccc(-c3ccccc3)c2)cc1)C(=O)O | – | Active | – |

| SMILES | Emax [2] [%] | EC50 [3] [µM] | Emax [4] [%] | EC50 [6] [µM] | Activity (McA-RH7777 [1]) | Activity (McA-RH7777 [5]) | Activity (McA-RH7777 [7]) |
| --- | --- | --- | --- | --- | --- | --- | --- |
| CCCCCCCC/C=C\CCCCCCCC(=O)OC[C@@H](O)COP(=O)(O)OC[C@H](N)C(=O)O | – | 0.021 | – | – | – | – | Active |
